Measurements taken from patent US20160008298A1, “XANTHOHUMOL-BASED COMPOUNDS AND COMPOSITIONS THEREOF, AND METHODS OF MAKING AND USING THE SAME” (Oregon State University, priority 2014, published 2016).
Values joined by “and” are separate entries in the source; they are usually repeats but may differ in a detail not shown here. Identical values can stand only once.

Legend:
mice [1] = test: Mouse LD50; type: in vivo
[2] = Low and high XN diet feeding for 12 weeks, body weight and food intake; type: in vivo, mouse; details: high-fat fed C57BL/6J mice; for body weight gain compared to vehicle: oral, 12 weeks
Description: FIG. 27 is a graph showing weekly body weights of C57BL/6J mice fed control, low XN (30 mgkg body weight/day) and high XN (60 mg/kg body weight/day) diets for 12 weeks.
FIG. 28 is a graph showing no difference in food intake between treated and untreated mice for the studies from FIG. 27.

C57BL6/J mice = test: Intraperitoneal glucose tolerance test in high-fat fed mice; type: in vivo, mouse; details: for insulin sensitivity in the GTT compared to control (vehicle-diet) mice: 30 mg/kg body weight/day, weeks 4 and 11; for Mean Plasma Glucose Level 0 Min: 30 mg/kg/day in high fat diet, 6 h fast, before glucose injection; for Mean Plasma Glucose Level 15 min / Mean Plasma Glucose Level 30 min / Mean Plasma Glucose Level 60 min / Mean Plasma Glucose Level 120 min / peak glucose level (group average) / time at which peak glucose level was reached / peak glucose level / time at which peak glucose level occurred: 30 mg/kg/day; for Mean Plasma Glucose Level 15 min / Mean Plasma Glucose Level 30 min / Mean Plasma Glucose Level 60 min / Mean Plasma Glucose Level 120 min: after 2 g/kg glucose i.p.; for peak glucose level (group average) / time at which peak glucose level was reached: Week 4 glucose tolerance test; for peak glucose level / time at which peak glucose level occurred: Week 11 glucose tolerance test
Description: The total number of C57BL6/J mice was 48, with 12 mice belonging to each of 4 treatment groups. Duration of the feeding was 14 weeks. Mouse feed contained high fat content (60% of kCal), and was supplemented with XN, DXN, or TXN in the treatment groups. XN, DXN and TXN content within the mouse diet were designed to deliver a dose of 30 mg/kg/day body weight. Food intake was measured three times per week by weighing the food pellet before placement in the cage, and at the time of feed changing by weighing uneaten food. Mice were unrestricted in dietary intake, being allowed to eat as much food as desired. Mice were weighed once per week. Groups included low dose (30 mg/kg) XN, DXN, TXN and no supplement control. Mice were maintained in accordance with the Oregon State University Institutional Animal Care and Use Committee (IACUC) regulations. One mouse was maintained on a standard AIN-93M chow diet to be used as a healthy reference during glucose tolerance assays.
Glucose tolerance tests were conducted during week 4 and week 11 of the feeding trial. Five mice from each treatment group were used in each glucose tolerance assay. Mice were fasted for 6 hours prior to baseline blood glucose testing. Blood was collected from the mice by tail puncture, and glucose measurements were taken using a One Touch UltraMini (LifeScan, Inc.) glucometer. Mice were weighed and then given an intraperitoneal (IP) injection of glucose equal to 2 g/kg body weight.

mice [3] = details: mouse; cited from earlier work
rats = test: XN administered to rats at human equivalent doses; type: in vivo, rat
Description: In particular disclosed embodiments, the human equivalent dose of 180 mg XN/day reduced body weight gain by 14% and reduced fasting plasma glucose by 25% when administered to rats. In some embodiments, the human equivalent dose of 60 or 180 mg XN/day reduced the formation of products of dysfunctional fatty acid oxidation by up to 55% when administered to rats. Solely by way of example, the range 0.1-500 mg described above in Table 2 for XN covers the effective human equivalent doses of 60 mg/day to 180 mg/day of XN.

C2C12 cells = test: MTT cell viability assay; type: cell-based, mouse; details: for cell viability after one hour of exposure: C2C12, 1 hour, up to 50 μM; for concentration at which cell viability was decreased: C2C12, 24 hours of exposure
Description: Mouse C2C12 skeletal muscle myoblasts (purchased from ATCC, Manassas, Va., USA) were first seeded in 75 cm2 flasks using a culture medium consisting of DMEM (Life Technologies, Grand Island, N.Y., USA), 10% fetal bovine serum (FBS; Atlanta Biologicals, Lawrenceville, Ga., USA), high glucose, L-glutamine, phenol red, 1 mM sodium pyruvate and 100 units/mL penicillin, 100 μg/mL streptomycin. The C2C12 cells were incubated at 37° C. in a humidified atmosphere of 5% CO2 until they were confluent. Then, they were obtained by trypsinization and seeded at a specific density in the plates of choice depending on the experiment.
For cell viability experiments (MTT assay), C2C12 cells were plated in 96-well plates at a density of 4,000 cells per well in 200 μL of growth medium (identical to the culture medium). After 48 hours of incubation, the medium was removed and the cells were treated with fresh solutions of various concentrations of XN, DXN or TXN in phenol red-free growth medium. The final concentrations of XN, DXN, TXN were 1, 2, 5, 8, 10, 25, 50 μM, all in quadruplicate wells, in the 96-well plates. The medium used consists of phenol red free DMEM (Life Technologies, Grand Island, N.Y., USA), 10% FBS, 1% glutamine, 1 mM of sodium pyruvate and 100 units/mL penicillin, 100 μg/mL streptomycin. The plates were then incubated for 24 hours or 1 hour. After removing the medium, the cells were treated with 0.5 mg/mL solution of MTT 3-(4,5-dimethylthiazol-2-yl)-2,5-diphenyltetrazolium bromide in phenol red-free growth medium and incubated for two hours. After removing the medium and adding a solution of acidified isopropanol to each well, the absorbance of each well was measured at 570 nm by using a spectrometer (SpectraMax 190).
Two MTT assays were conducted (FIGS. 11A and 11B): after one hour and 24 hours of exposure.

C2C12 mouse myocytes = test: Cellular uptake by LC-MS/MS; type: in vitro ADME; details: 5 μM, one hour
Description: Cellular uptake investigations were performed using C2C12 mouse myocytes. Cells were cultured in 75 cm2 flasks using Dulbecco's Modified Eagle Medium (DMEM) obtained from Sigma-Aldrich, which was supplemented with 10% Fetal Bovine serum (FBS) and 1% penicillin/streptomycin solution (PS). Cultures were maintained in an incubator at 37° C. and 5% CO2.
Uptake comparisons were conducted by seeding three 12-well plates with 1 mL of C2C12 cells in suspension with a density of 100,000 cells/mL, which were then incubated until confluent. Four treatment groups were compared, including XN, DXN, TXN and a no compound control. Each compound was tested in quadruplicate in the presence of cells and in medium not exposed to cells. Medium not exposed to cells was examined for compound concentration to help account for protein binding in medium. Confluent cells were subsequently treated with fresh DMEM containing 1% FBS, 1% PS, as well as 5 μM XN, DXN, or TXN and incubated at 37° C. and 5% CO2 for one hour. Following incubation, cell medium was collected and the cells were washed once using Hanks Balanced Salt Solution (HBSS). HBSS was then aspirated, and 0.5 mL of cell extraction buffer (50% methanol:ethanol, v:v) was added to each well and the plates were covered with a plastic adhesive plate cover. The plates were placed in a freezer and maintained at −80° C. for 24 hours. After freezing, the plates were removed from the freezer and the cells were removed from the wells using a cell scraper and collected. An additional 0.5 mL of extraction buffer was added to each well as a rinse, which was collected and added to the cell extracts. […]
All cell culture samples were analyzed by LC-MS/MS using an Applied Biosystems API 4000 Q-trap triple quadrupole mass spectrometer. […] Once concentrations could be determined, mass balance of XN, DXN or TXN was calculated based on the average total volume of the sample, approximately 0.995 mL for cell medium, and 0.75 mL for cellular extracts.

[4] = tested on: mitochondrial transmembrane potential in C2C12 cells; test: JC-1 assay of mitochondrial transmembrane potential; type: cell-based, mouse; details: 5 μM, 8 μM, 25 μM and 50 μM; one hour of exposure
Description: Cells were plated at a density of 80,000 cells per well in black 96-well plates and incubated for 24 hours at 37° C. (5% CO2). They were then treated with fresh solutions of various concentrations of XN, DXN or TXN in growth medium. The final concentrations of XN, DXN, TXN were 1, 2, 5, 8, 25, 50 μM, all in quadruplicate wells, in the 96-well plates. After one hour of exposure to the compounds at 37° C. (5% CO2), the cells were treated with 10 μL of a JC-1 staining solution (freshly prepared by diluting 11 fold 100 μL of the JC-1 agent furnished from the assay kit). After 15 to 30 minutes of incubation (37° C., 5% CO2), the cells were washed three times with the Cell-Based Assay Buffer (prepared by dissolving three buffer tablets of the kit in 300 mL of MilliQ water). The plates were then analyzed by a fluorescent plate reader (SpectraMax Gemini XS) at 560-595 nm and 485-535 nm.
JC-1 can selectively enter into mitochondria and reversibly change color from green to red as the membrane potential increases. In healthy cells with high mitochondrial transmembrane potential, JC-1 spontaneously forms complexes known as J-aggregates with intense red fluorescence with excitation and emission at 560 nm and 595 nm, respectively. […] The ratio of fluorescence intensity of J-aggregates to fluorescence intensity of J-monomers can be used as an indicator of cell heath or mitochondrial state. […] A decrease in the values of the ratios compared to the control is indicative of an alteration in the potential across the mitochondrial membrane.

C2C12 muscle mouse cells = test: Seahorse cell titration assay; type: cell-based; details: 2 μM, 20,000 cells/well
Description: As advised by Seahorce Bioscience, running a cell titration assay with FCCP at different concentrations prior to any Seahorse experiment is an important step to determine proper cell density for the cell line used. Then, oligomycin was tested at different concentrations at the proper cell density in order to determine the optimal working concentration. These optimization and titration assays offered starting conditions in determining the uncoupling effects on the mitochondria.
In the cell titration assay, cells were plated at 10,000, 20,000 and 40,000 cells/wells and FCCP was injected at 0.3 μM or 0.5 μM. […] DXN was also injected at 2 μM at 20,000 cells/well to have an idea of its potential effects on OCR.

[5] = Dissolution in Seahorse running medium; type: physicochemical; details: 0.1% of FBS, 37° C.
[6] = human equivalent dose of 180 mg XN/day

| Compound | insulin sensitivity in the GTT compared to control (vehicle-diet) mice (C57BL6/J mice) | Mean Plasma Glucose Level 0 Min (C57BL6/J mice; Week 4) | Mean Plasma Glucose Level 15 min (C57BL6/J mice; Week 4) | Mean Plasma Glucose Level 30 min (C57BL6/J mice; Week 4) | Mean Plasma Glucose Level 60 min (C57BL6/J mice; Week 4) | Mean Plasma Glucose Level 120 min (C57BL6/J mice; Week 4) | peak glucose level (group average) (C57BL6/J mice) | time at which peak glucose level was reached (C57BL6/J mice) [min] | Mean Plasma Glucose Level 0 Min (C57BL6/J mice; Week 11) | Mean Plasma Glucose Level 15 min (C57BL6/J mice; Week 11) | Mean Plasma Glucose Level 30 min (C57BL6/J mice; Week 11) | Mean Plasma Glucose Level 60 min (C57BL6/J mice; Week 11) | Mean Plasma Glucose Level 120 min (C57BL6/J mice; Week 11) | peak glucose level (C57BL6/J mice) [mg/dL] | time at which peak glucose level occurred (C57BL6/J mice) [min] | cell viability after one hour of exposure (C2C12 cells) | concentration at which cell viability was decreased (C2C12 cells) [µM] | cellular uptake (of total amount of compound applied to cells) (C2C12 mouse myocytes) | ratio of aggregates to monomers (JC-1) versus control [4] | other results |
| --- | --- | --- | --- | --- | --- | --- | --- | --- | --- | --- | --- | --- | --- | --- | --- | --- | --- | --- | --- | --- |
| COc1cc(O)c(CC=C(C)C)c(O)c1C(=O)/C=C/c1ccc(O)cc1 [XN, xanthohumol] | improved insulin sensitivity | 283.4 (±4.6) mg/dL | 508.8 (±28.3) mg/dL | 456.0 (±41.5) mg/dL | 389.6 (±29.8) mg/dL | 167.0 (±3.8) mg/dL | 508.8 mg/dL | 15 | 193.2 (±21.9) mg/dL | 465.0 (±30.0) mg/dL | 452.0 (±41.6) mg/dL | 463.8 (±52.2) mg/dL | 373.4 mg/dL and 373.4 (±58.1) mg/dL | 465.0 | 15 | did not significantly affect cell viability | 50 | approximately 6.6% | changed significantly from the control values | LD50 dose relative to the effective dose level (mice [1]): more than 50 times; food intake ([2]; 30 and 60 mg/kg): not altered; body weight gain compared to vehicle ([2]; 30 mg/kg (low dose)): gain less weight; body weight gain compared to vehicle ([2]; 60 mg/kg (high dose)): gain less weight; LD50 (mice [3]): > 2000 mg/kg; reduction of body weight gain (rats; [6]): 14%; reduction of fasting plasma glucose (rats; [6]): 25%; reduction of the formation of products of dysfunctional fatty acid oxidation (rats; human equivalent dose of 60 or 180 mg XN/day): up to 55% |
| COc1cc(O)c(CC=C(C)C)c(O)c1C(=O)CCc1ccc(O)cc1 [DXN, α,β-dihydroxanthohumol] | improved insulin sensitivity | 297.6 (±6.6) mg/dL | 396.4 (±55.9) mg/dL | 423.0 (±76.3) mg/dL | 342.8 (±70.4) mg/dL | 176.2 (±40.0) mg/dL | 423.0 mg/dL and 407.2 mg/dL | 30 | 249.8 (±22.1) mg/dL | 474.4 (±46.0) mg/dL | 508.0 (±41.2) mg/dL | 494.8 (±38.9) mg/dL | 298.8 mg/dL and 298.8 (±45.5) mg/dL | 508.0 | 30 | did not significantly affect cell viability | 8 | 7.8% | changed significantly from the control values | increase of OCR (C2C12 muscle mouse cells): 204 % of the baseline; concentration dissolved in running medium [5]: up to 25 μM |
| COc1cc(O)c(CCC(C)C)c(O)c1C(=O)CCc1ccc(O)cc1 [TXN, tetrahydroxanthohumol] | improved insulin sensitivity | 193.6 (±17.9) mg/dL | 407.2 (±38.1) mg/dL | 394.6 (±50.1) mg/dL | 235.8 (±21.9) mg/dL | 149.0 (±15.3) mg/dL | 407.2 mg/dL and 423.0 mg/dL | 15 | 245.0 (±17.8) mg/dL | 408.0 (±29.8) mg/dL | 513.6 (±37.6) mg/dL | 450.8 (±5.0) mg/dL | 266.8 mg/dL and 266.8 (±32.1) mg/dL | 513.6 | 30 | did not significantly affect cell viability | 25 | 6.9% | changed significantly from the control values |  |
